According to ChEMBL document CHEMBL1201862, “PubChem BioAssay data set” (2004):
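Where inhibition never reached the appropriate level, the endpoint shown equals the highest concentration tested. Otherwise, values were interpolated linearly from a five-concentration, 48-hour dose response in 96-well plates. GI50: concentration for 50% inhibition of growth.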 Activity calls are given as the source filed them. Rule as the data show it: active = GI50 up to about 1.1 µM and inactive = higher.

Legend:
Experiment in all cases: NCI-60 cell line screen, 48 h
[1] = test system: CAKI-1
[2] = test system: NCI-H522
[3] = test system: MOLT-4
[4] = test system: HL-60
[5] = test system: SN12C
[6] = test system: TK-10
[7] = test system: NCI-H226
[8] = test system: UO-31
[9] = test system: SNB-75
[10] = test system: CCRF-CEM
[11] = test system: Malme-3M
[12] = test system: EKVX
[13] = test system: LOX IMVI
[14] = test system: RPMI-8226
[15] = test system: SR
[16] = test system: HCC 2998

Measured: GI50

C#CCC1(C(=O)OCC)C(=O)c2ccccc2N(C)C1=O (stereo unspecified)
inactive: [1] 35.6 µM | [2] 12.1 µM | [3] 45.2 µM | [4] 60.1 µM | [5] 67.9 µM | [6] > 100 µM | [7] 62.5 µM | [8] 30.8 µM | [9] 16.6 µM | [10] > 100 µM | [11] > 100 µM | [12] > 100 µM | [13] > 100 µM | [14] 68.4 µM

COc1ccc(Cc2c3cc(OC)c(OC)cc3cc[n+]2C)cc1
inactive: [1] > 48.3 µM | [2] 19.9 µM | [3] > 100 µM | [4] 1.21 µM | [5] 4.93 µM | [6] > 52.5 µM | [7] 33.1 µM | [8] > 34 µM | [9] 9.25 µM | [11] 27.2 µM | [12] > 39 µM | [13] > 14.2 µM | [15] 2.2 µM | [16] > 25.2 µM | [14] 24.5 µM

O=c1c2cc3c(=O)n(CCc4ccccc4CO)c(=O)c3cc2c(=O)n1CCc1ccccc1CO
inactive: [2] > 100 µM | [3] > 100 µM | [4] > 100 µM | [5] > 100 µM | [6] > 100 µM | [7] > 100 µM | [8] > 100 µM | [9] > 100 µM | [10] > 100 µM | [11] > 100 µM | [13] > 100 µM

O=C(/C=C/c1ccc([N+](=O)[O-])cc1)c1ccc(NCc2nc3ccccc3[nH]2)cc1
inactive: [1] 6.52 µM | [2] 3.26 µM | [3] 3.51 µM | [4] 1.6 µM | [5] 2.96 µM | [6] 5.96 µM | [8] 4.98 µM | [9] 3.93 µM | [10] 1.57 µM | [11] 14.2 µM | [12] 7.69 µM | [13] 2.43 µM | [15] 3.34 µM | [16] 2.61 µM

COC(=O)[C@H]1N[C@@H](C(=O)OC)C23CCC[C@H]2CC[C@]1(C(OC)OC)C3
inactive: [1] > 100 µM | [2] > 100 µM | [3] > 100 µM | [4] > 100 µM | [5] > 100 µM | [6] > 100 µM | [7] > 100 µM | [8] > 100 µM | [9] > 100 µM | [10] > 100 µM | [11] > 100 µM | [12] > 100 µM | [13] > 100 µM | [16] > 100 µM | [14] > 100 µM

COC(=O)c1ccccc1NC(=O)C(=O)CC(=O)CC(c1ccccc1)c1c(O)c2ccccc2oc1=O (stereo unspecified)
inactive: [1] > 100 µM | [2] > 100 µM | [3] > 100 µM | [4] > 100 µM | [5] > 100 µM | [6] > 100 µM | [8] > 100 µM | [10] > 100 µM | [11] > 100 µM | [12] > 100 µM | [15] > 100 µM | [16] > 100 µM | [14] > 100 µM

CCC(C)CN1C(=O)NC(Cc2ccccc2)C1=O (stereo unspecified)
inactive: [1] > 100 µM | [2] > 100 µM | [4] > 10 µM | [5] > 100 µM | [6] > 100 µM | [7] > 100 µM | [8] > 100 µM | [9] > 100 µM | [11] > 100 µM | [12] > 100 µM | [13] > 100 µM | [15] > 100 µM | [16] > 100 µM

COc1cccc(/C=N/[N-]C(=S)Nc2ccccc2)c1[O-].O.[Zn+2]
inactive: [1] 87.7 µM | [2] 19.7 µM | [3] 28.6 µM | [4] 28.8 µM | [5] > 100 µM | [6] > 100 µM | [7] 37.8 µM | [8] 33.6 µM | [9] 43.7 µM | [10] 29.3 µM | [11] 86.5 µM | [12] 49.1 µM | [13] 53.7 µM | [16] > 100 µM | [14] 66.8 µM

Cc1cccc(C(=O)c2cccc3ccccc23)c1C(=O)O
inactive: [2] > 100 µM | [3] > 100 µM | [5] > 100 µM | [6] > 100 µM | [7] > 100 µM | [8] > 100 µM | [9] > 100 µM | [10] > 100 µM | [11] > 100 µM | [12] > 100 µM | [13] > 100 µM | [14] > 100 µM

CC(C)=CC(=O)Cc1nc2ccccc2[nH]c1=O
inactive: [1] 76.7 µM | [3] > 100 µM | [4] 49.5 µM | [5] > 100 µM | [6] > 100 µM | [7] > 100 µM | [8] 68.7 µM | [9] 40.3 µM | [10] 64.7 µM | [11] > 100 µM | [12] 47.3 µM | [13] > 100 µM | [15] > 100 µM | [16] > 100 µM | [14] > 100 µM

CC12C(=CC(=O)CC1SCCS(=O)(=O)O)C(C#N)=C(N)N2c1ccc(Cl)c(Cl)c1 (stereo unspecified)
inactive: [1] > 100 µM | [2] 36 µM | [3] > 100 µM | [4] > 100 µM | [5] > 100 µM | [6] > 100 µM | [7] > 100 µM | [8] > 100 µM | [9] > 100 µM | [10] > 100 µM | [12] > 100 µM | [13] > 100 µM | [15] > 100 µM | [16] > 100 µM | [14] > 100 µM

C=C=CC(NC(=O)c1ccccc1)(C(=O)O)C(F)(F)F (stereo unspecified)
inactive: [1] > 10 µM | [3] > 100 µM | [4] > 100 µM | [5] > 100 µM | [6] > 100 µM | [7] > 100 µM | [9] > 100 µM | [10] > 100 µM | [11] > 100 µM | [12] > 100 µM | [13] > 100 µM | [15] > 100 µM | [16] > 100 µM | [14] > 100 µM

Nc1nc(N)c2nc(-c3ccco3)cnc2n1
inactive: [1] 25 µM | [2] 50.2 µM | [3] 44.5 µM | [4] 28.3 µM | [5] 85.5 µM | [6] 88.1 µM | [7] > 100 µM | [8] 38.5 µM | [9] 28.4 µM | [10] 43.1 µM | [11] 46.5 µM | [12] 18.3 µM | [13] 30.9 µM | [15] 39.9 µM | [16] > 100 µM | [14] > 100 µM

CCOC(=O)C(=O)NCCCN1CCOCC1
inactive: [1] > 100 µM | [2] > 100 µM | [3] > 100 µM | [4] > 100 µM | [5] > 100 µM | [6] > 100 µM | [7] > 100 µM | [8] > 100 µM | [9] > 100 µM | [10] > 100 µM | [11] > 100 µM | [12] > 100 µM | [13] > 100 µM | [16] > 100 µM

Nc1nc(SCc2ccccc2Cl)c2[nH]cnc2n1
inactive: [2] 56.4 µM | [3] 34.6 µM | [4] 36.4 µM | [5] 72.3 µM | [6] 18.8 µM | [8] 77.6 µM | [10] 54.5 µM | [11] 70.8 µM | [12] 85.9 µM | [13] 44.2 µM | [15] 64.9 µM | [16] > 100 µM | [14] > 100 µM

O=C(O)[C@@H](NS(=O)(=O)c1ccc(F)cc1)c1ccccc1
inactive: [1] > 100 µM | [2] > 100 µM | [3] > 100 µM | [5] > 100 µM | [6] > 100 µM | [7] > 100 µM | [8] > 100 µM | [9] > 100 µM | [10] > 100 µM | [11] > 100 µM | [12] > 100 µM | [13] > 100 µM | [16] > 100 µM | [14] > 100 µM

O=C(Nc1ccc(Cl)cc1Cl)/C(Cl)=C1/Sc2ccccc2NC1=O
inactive: [1] 41.2 µM | [2] 18.8 µM | [3] 25.6 µM | [4] 21.9 µM | [5] 28.4 µM | [6] 73.5 µM | [7] 25.2 µM | [8] 30 µM | [9] 18 µM | [10] 22.8 µM | [11] 20 µM | [12] 58.1 µM | [13] 40.6 µM | [16] 32 µM | [14] 24 µM

C/C(CCn1[nH]c(=O)ccc1=O)=N\NC(=O)C(=O)NN
inactive: [1] > 100 µM | [2] > 100 µM | [3] > 100 µM | [4] > 100 µM | [5] > 100 µM | [6] > 100 µM | [7] > 100 µM | [8] > 100 µM | [10] > 100 µM | [11] > 100 µM | [12] > 100 µM | [13] > 100 µM | [16] > 100 µM | [14] > 100 µM

C=CCc1cc(OC)c2c(c1)C(OC(C)=O)CC(c1ccc(OC)c(OC)c1)O2 (stereo unspecified)
inactive: [1] > 100 µM | [2] > 100 µM | [3] > 100 µM | [4] > 100 µM | [5] > 100 µM | [6] 63.1 µM | [7] > 100 µM | [8] > 100 µM | [9] 17.1 µM | [10] > 100 µM | [11] > 100 µM | [12] > 100 µM | [15] > 100 µM | [16] > 100 µM
